Data: PMC10041525, “New Dual Inhibitors of Bacterial Topoisomerases with Broad-Spectrum Antibacterial Activity and In Vivo Efficacy against Vancomycin-Intermediate Staphylococcus aureus” (Journal of Medicinal Chemistry, 2023)

Test system: 100 A. baumannii strains (50 MDR, 50 non-MDR)
Experiment: MIC broth microdilution at IHMA Europe, panel of 100 strains
Type: cell-based

piperacillin/tazobactam [Piperacillin Tazobactam]
MIC (A. baumannii IHMA 1769393, Lithuania 2018, Non-MDR): ≤0.25 µg/mL
MIC (A. baumannii IHMA 1769782, Israel 2018, MDR): >128 µg/mL
MIC (A. baumannii IHMA 1769910, Israel 2018, Non-MDR): ≤0.25 µg/mL
MIC (A. baumannii IHMA 1790317, Czech Republic 2018, Non-MDR): ≤0.25 µg/mL
MIC (A. baumannii IHMA 1790916, Romania 2018, Non-MDR): ≤0.25 µg/mL
MIC (A. baumannii IHMA 1791877, Israel 2018, MDR): >128 µg/mL
MIC (A. baumannii IHMA 1792961, Jordan 2018, MDR): >128 µg/mL
MIC (A. baumannii IHMA 1795669, Tunisia 2018, Non-MDR): ≤0.25 µg/mL
MIC (A. baumannii IHMA 1814276, Lebanon 2018, MDR): >128 µg/mL
MIC (A. baumannii IHMA 1815198, Kuwait 2018, MDR): >128 µg/mL
MIC (A. baumannii IHMA 1815856, Israel 2018, MDR): >128 µg/mL
MIC (A. baumannii IHMA 1821468, South Africa 2018, Non-MDR): ≤0.25 µg/mL
MIC (A. baumannii IHMA 1829500, Georgia 2018, Non-MDR): ≤0.25 µg/mL
MIC (A. baumannii IHMA 1830924, United Kingdom 2018, Non-MDR): 16 µg/mL
MIC (A. baumannii IHMA 1849819, Kuwait 2018, MDR): >128 µg/mL
MIC (A. baumannii IHMA 1849829, Kuwait 2018, Non-MDR): ≤0.25 µg/mL
MIC (A. baumannii IHMA 1857118, Slovenia 2018, Non-MDR): ≤0.25 µg/mL
MIC (A. baumannii IHMA 1863631, France 2018, Non-MDR): ≤0.25 µg/mL
MIC (A. baumannii IHMA 1870054, United States 2018, Non-MDR): ≤0.25 µg/mL
MIC (A. baumannii IHMA 1884428, Italy 2018, Non-MDR): ≤0.25 µg/mL
MIC (A. baumannii IHMA 1884990, Germany 2018, Non-MDR): ≤0.25 µg/mL
MIC (A. baumannii IHMA 1900538, Turkey 2018, Non-MDR): ≤0.25 µg/mL
MIC (A. baumannii IHMA 1913773, Kenya 2018, Non-MDR): ≤0.25 µg/mL
MIC (A. baumannii IHMA 1926285, Qatar 2018, Non-MDR): ≤0.25 µg/mL
MIC (A. baumannii IHMA 1926288, Qatar 2018, MDR): >128 µg/mL
MIC (A. baumannii IHMA 1957343, Portugal 2019, Non-MDR): 8 µg/mL
MIC (A. baumannii IHMA 1963732, Turkey 2019, MDR): >128 µg/mL
MIC (A. baumannii IHMA 1967860, Spain 2019, Non-MDR): ≤0.25 µg/mL
MIC (A. baumannii IHMA 1971673, Latvia 2019, MDR): >128 µg/mL
MIC (A. baumannii IHMA 1975075, Israel 2019, Non-MDR): 8 µg/mL
MIC (A. baumannii IHMA 1977077, Kuwait 2019, Non-MDR): 16 µg/mL
MIC (A. baumannii IHMA 1983151, Greece 2019, MDR): >128 µg/mL
MIC (A. baumannii IHMA 1984665, Lithuania 2019, MDR): >128 µg/mL
MIC (A. baumannii IHMA 1986678, Turkey 2019, Non-MDR): ≤0.25 µg/mL
MIC (A. baumannii IHMA 1986738, Turkey 2019, MDR): >128 µg/mL
MIC (A. baumannii IHMA 1987162, Croatia 2019, MDR): >128 µg/mL
MIC (A. baumannii IHMA 1993615, Turkey 2019, MDR): >128 µg/mL
MIC (A. baumannii IHMA 1994284, Italy 2019, MDR): >128 µg/mL
MIC (A. baumannii IHMA 1995161, Czech Republic 2019, Non-MDR): ≤0.25 µg/mL
MIC (A. baumannii IHMA 1997936, Morocco 2019, Non-MDR): 4 µg/mL
MIC (A. baumannii IHMA 1999178, Belgium 2019, Non-MDR): 4 µg/mL
MIC (A. baumannii IHMA 2003279, Turkey 2019, MDR): >128 µg/mL
MIC (A. baumannii IHMA 2014367, Jordan 2019, Non-MDR): 4 µg/mL
MIC (A. baumannii IHMA 2014931, South Africa 2019, Non-MDR): 0.5 µg/mL
MIC (A. baumannii IHMA 2019315, Romania 2019, Non-MDR): ≤0.25 µg/mL
MIC (A. baumannii IHMA 2020360, Croatia 2019, MDR): >128 µg/mL
MIC (A. baumannii IHMA 2031511, Greece 2019, Non-MDR): ≤0.25 µg/mL
MIC (A. baumannii IHMA 2031524, Greece 2019, MDR): >128 µg/mL
MIC (A. baumannii IHMA 2034657, Tunisia 2019, Non-MDR): ≤0.25 µg/mL
MIC (A. baumannii IHMA 2035089, Serbia 2019, MDR): >128 µg/mL
MIC (A. baumannii IHMA 2035134, Serbia 2019, Non-MDR): 4 µg/mL
MIC (A. baumannii IHMA 2038976, Hungary 2019, MDR): >128 µg/mL
MIC (A. baumannii IHMA 2051503, Serbia 2019, MDR): >128 µg/mL
MIC (A. baumannii IHMA 2058329, Slovenia 2019, Non-MDR): ≤0.25 µg/mL
MIC (A. baumannii IHMA 2065587, France 2019, Non-MDR): ≤0.25 µg/mL
MIC (A. baumannii IHMA 2099294, United Kingdom 2019, Non-MDR): 4 µg/mL
MIC (A. baumannii IHMA 2129256, Qatar 2019, Non-MDR): ≤0.25 µg/mL
MIC (A. baumannii IHMA 2154584, Israel 2020, MDR): >128 µg/mL
MIC (A. baumannii IHMA 2155340, Kenya 2020, MDR): >128 µg/mL
MIC (A. baumannii IHMA 2156634, Turkey 2020, MDR): >128 µg/mL
MIC (A. baumannii IHMA 2156709, Turkey 2020, MDR): >128 µg/mL
MIC (A. baumannii IHMA 2157614, Australia 2020, Non-MDR): ≤0.25 µg/mL
MIC (A. baumannii IHMA 2177232, Lithuania 2020, MDR): >128 µg/mL
MIC (A. baumannii IHMA 2177489, Lithuania 2020, MDR): >128 µg/mL
MIC (A. baumannii IHMA 2178574, Ukraine 2020, Non-MDR): 2 µg/mL
MIC (A. baumannii IHMA 2180134, Malaysia 2020, Non-MDR): 2 µg/mL
MIC (A. baumannii IHMA 2180142, Malaysia 2020, MDR): >128 µg/mL
MIC (A. baumannii IHMA 2181370, Morocco 2020, MDR): >128 µg/mL
MIC (A. baumannii IHMA 2183729, Argentina 2020, MDR): >128 µg/mL
MIC (A. baumannii IHMA 2183849, Argentina 2020, Non-MDR): ≤0.25 µg/mL
MIC (A. baumannii IHMA 2184382, Japan 2020, Non-MDR): ≤0.25 µg/mL
MIC (A. baumannii IHMA 2193375, Venezuela 2020, MDR): >128 µg/mL
